Earlier results on 7 molecules are cited in patent US20230190748A1, “COMPOSITIONS FOR TREATMENT OF AGED DISEASES” (GERO PTE. LTD., priority 2020, published 2023).

For series [1] the following is noted: white to brownish yellow powder.
Another series deals with EGFR/ErbB1 (Homo sapiens, UniProt P00533). To be noted: class symbols + to ++++ and √; legend not given.
The target in the next series is HER2/ErbB2 (Homo sapiens, UniProt P04626). To be noted: class symbols + to ++++ and √; legend not given.

SMILES strings stand for the structures.

EGFR/ErbB1, sequence (P00533 25-1210): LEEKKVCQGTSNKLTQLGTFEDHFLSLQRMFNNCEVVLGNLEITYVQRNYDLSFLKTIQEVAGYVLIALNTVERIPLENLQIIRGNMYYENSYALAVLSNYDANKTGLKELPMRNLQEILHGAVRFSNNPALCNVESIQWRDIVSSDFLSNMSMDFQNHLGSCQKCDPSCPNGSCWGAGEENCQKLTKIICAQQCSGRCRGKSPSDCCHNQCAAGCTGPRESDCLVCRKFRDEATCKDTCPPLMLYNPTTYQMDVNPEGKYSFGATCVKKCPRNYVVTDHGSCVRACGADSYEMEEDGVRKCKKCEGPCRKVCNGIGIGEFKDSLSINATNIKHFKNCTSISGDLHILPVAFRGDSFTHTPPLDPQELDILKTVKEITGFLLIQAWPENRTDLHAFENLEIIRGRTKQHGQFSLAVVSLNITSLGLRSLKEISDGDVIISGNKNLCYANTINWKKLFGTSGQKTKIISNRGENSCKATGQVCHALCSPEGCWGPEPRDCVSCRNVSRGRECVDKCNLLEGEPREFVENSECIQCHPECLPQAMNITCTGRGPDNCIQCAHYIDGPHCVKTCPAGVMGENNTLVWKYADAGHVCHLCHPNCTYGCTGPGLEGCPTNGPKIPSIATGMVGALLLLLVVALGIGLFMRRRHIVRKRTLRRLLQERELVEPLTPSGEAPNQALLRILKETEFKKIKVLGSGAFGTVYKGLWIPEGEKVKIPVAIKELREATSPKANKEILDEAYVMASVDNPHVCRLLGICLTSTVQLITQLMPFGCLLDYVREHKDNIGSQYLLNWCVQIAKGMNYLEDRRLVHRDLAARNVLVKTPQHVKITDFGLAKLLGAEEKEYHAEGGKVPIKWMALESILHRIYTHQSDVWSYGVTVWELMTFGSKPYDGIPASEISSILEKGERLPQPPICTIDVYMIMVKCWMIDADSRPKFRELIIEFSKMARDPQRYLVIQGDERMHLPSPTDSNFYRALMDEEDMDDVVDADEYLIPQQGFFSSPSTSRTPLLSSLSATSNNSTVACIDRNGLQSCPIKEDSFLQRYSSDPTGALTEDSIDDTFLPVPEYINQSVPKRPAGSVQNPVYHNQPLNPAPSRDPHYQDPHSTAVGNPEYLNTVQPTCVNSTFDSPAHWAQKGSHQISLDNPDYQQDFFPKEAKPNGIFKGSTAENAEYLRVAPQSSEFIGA
HER2/ErbB2, sequence (P04626 23-1255): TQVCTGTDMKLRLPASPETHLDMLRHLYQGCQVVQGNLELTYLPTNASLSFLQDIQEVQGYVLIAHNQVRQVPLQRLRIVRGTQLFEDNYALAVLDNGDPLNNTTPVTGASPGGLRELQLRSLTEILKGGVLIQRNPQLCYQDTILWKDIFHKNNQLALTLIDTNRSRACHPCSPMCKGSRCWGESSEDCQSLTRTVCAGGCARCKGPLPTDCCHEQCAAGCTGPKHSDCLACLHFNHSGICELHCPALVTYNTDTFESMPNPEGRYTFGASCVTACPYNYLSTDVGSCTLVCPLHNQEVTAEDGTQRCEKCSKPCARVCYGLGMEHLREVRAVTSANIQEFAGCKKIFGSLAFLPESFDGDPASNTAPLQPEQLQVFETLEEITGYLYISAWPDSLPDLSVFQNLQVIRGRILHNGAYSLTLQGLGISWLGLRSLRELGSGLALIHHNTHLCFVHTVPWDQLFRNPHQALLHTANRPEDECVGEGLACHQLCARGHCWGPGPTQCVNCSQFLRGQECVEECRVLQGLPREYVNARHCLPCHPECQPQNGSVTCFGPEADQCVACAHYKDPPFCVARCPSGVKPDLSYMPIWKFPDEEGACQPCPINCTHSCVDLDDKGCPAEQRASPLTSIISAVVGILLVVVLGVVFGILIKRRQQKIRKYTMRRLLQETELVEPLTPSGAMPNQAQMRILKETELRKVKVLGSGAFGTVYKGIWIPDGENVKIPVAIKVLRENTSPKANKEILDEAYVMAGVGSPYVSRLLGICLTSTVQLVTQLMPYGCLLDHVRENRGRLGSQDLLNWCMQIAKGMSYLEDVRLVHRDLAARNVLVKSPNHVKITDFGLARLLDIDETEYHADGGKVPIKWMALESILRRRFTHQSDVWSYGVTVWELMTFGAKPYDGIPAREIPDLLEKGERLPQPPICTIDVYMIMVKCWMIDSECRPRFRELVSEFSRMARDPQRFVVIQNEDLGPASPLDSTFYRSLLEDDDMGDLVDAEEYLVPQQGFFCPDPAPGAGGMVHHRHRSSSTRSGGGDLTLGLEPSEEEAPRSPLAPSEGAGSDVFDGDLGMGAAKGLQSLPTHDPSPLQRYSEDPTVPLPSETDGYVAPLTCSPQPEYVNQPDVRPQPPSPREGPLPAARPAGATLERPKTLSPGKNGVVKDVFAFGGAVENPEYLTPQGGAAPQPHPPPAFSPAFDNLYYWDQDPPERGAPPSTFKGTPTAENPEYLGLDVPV

Take `CN(C)C/C=C/C(=O)Nc1cc2c(Nc3ccc(F)c(Cl)c3)ncnc2cc1O[C@H]1CCOC1.O=C(O)/C=C\C(=O)O.O=C(O)/C=C\C(=O)O` [Afatinib (BIBW2992) Dimaleate, 2-butenamide, N-[4-[(3-chloro-4-fluorophenyl)amino] 7-[[(3S)-tetrahydro-3-furanyl]oxy]-6-quinazolinyl]-4-(dimethylamino)-,(2E)-, (2Z)-2-butenedioate (1:2)]: in series [1], the solubility in water result is listed as “water soluble”.

In the case of `C=CC(=O)N1CC[C@@H](Oc2nc(Nc3ccc(N4CCC(N5CCN(C)CC5)CC4)cc3)c(C(N)=O)nc2CC)C1` [Naquotinib(ASP8273), Naquotinib], at EGFR/ErbB1, the EGFR/ErbB1 result was “√”.

Consider `Cc1cc(O)c2c(c1)C(=O)c1cccc(O)c1C2=O` [Chrysophanic Acid], for which the EGFR/ErbB1 entry on EGFR/ErbB1 is reported as “√”.

On to `Cc1cc(Nc2ncnc3ccc(-c4ccc(CNCCS(C)(=O)=O)o4)cc23)ccc1Oc1ccn2ncnc2c1` [HER2-Inhibitor-1], for which the HER2/ErbB2 entry on HER2/ErbB2 was “√”.

With `C=CC(=O)Nc1cccc(Oc2nc(Nc3ccc(N4CCN(C)CC4)cc3)nc3ccsc23)c1` [Olmutinib (HM61713, BI 1482694), Olmutinib], the EGFR/ErbB1 entry on EGFR/ErbB1 is reported as “√”.

Turning to `O=C(/C=C/c1ccc(O)c(O)c1)c1ccc(O)cc1O` [Butein], at EGFR/ErbB1, the EGFR/ErbB1 result is reported as “√”.

`C=CC(=O)Nc1cccc(Sc2nc(Nc3ccc(N4CCN(C)CC4)cc3)ncc2Cl)c1` [WZ8040]: the EGFR/ErbB1 entry on EGFR/ErbB1 is given as “√”.
